Results reported in patent US6933272B1 (priority 1998, dated 2005).
Read-outs that look alike come from different tables or passages of the source.

Tests used:
[1] = molecular target: T1, insulin receptor (Homo sapiens, UniProt P06213); assay: 125I insulin binding to wheat germ agglutinin purified insulin receptors (WGA.IR); parameters: host or cells: several: placental membranes, CHO.T11 cells, WGA purified receptors; settings: LIGAND 1-site fit
Method: (§1) Tubes were mixed and incubated for 16 h at 4° C. After the incubation, the tubes were placed on ice and 300 μL of a 1:5 suspension of 0.4% bovine-γ-globulin in 20% polyethyleneglycol 6000 (BDH chemicals) was added to each tube, mixed thoroughly and left to incubate for 30 min on ice. The tubes were then centrifuged (3,000 g) for 30 min at 4° C., the supernatant was aspirated off and the pellet counted for radioactivity. […] Inhibition constants were estimated by graphical analysis of displacement plots or calculated using the curve fitting programs EBDA and/or LIGAND.
Target sequence in this assay (P06213 28-758 limits assumed): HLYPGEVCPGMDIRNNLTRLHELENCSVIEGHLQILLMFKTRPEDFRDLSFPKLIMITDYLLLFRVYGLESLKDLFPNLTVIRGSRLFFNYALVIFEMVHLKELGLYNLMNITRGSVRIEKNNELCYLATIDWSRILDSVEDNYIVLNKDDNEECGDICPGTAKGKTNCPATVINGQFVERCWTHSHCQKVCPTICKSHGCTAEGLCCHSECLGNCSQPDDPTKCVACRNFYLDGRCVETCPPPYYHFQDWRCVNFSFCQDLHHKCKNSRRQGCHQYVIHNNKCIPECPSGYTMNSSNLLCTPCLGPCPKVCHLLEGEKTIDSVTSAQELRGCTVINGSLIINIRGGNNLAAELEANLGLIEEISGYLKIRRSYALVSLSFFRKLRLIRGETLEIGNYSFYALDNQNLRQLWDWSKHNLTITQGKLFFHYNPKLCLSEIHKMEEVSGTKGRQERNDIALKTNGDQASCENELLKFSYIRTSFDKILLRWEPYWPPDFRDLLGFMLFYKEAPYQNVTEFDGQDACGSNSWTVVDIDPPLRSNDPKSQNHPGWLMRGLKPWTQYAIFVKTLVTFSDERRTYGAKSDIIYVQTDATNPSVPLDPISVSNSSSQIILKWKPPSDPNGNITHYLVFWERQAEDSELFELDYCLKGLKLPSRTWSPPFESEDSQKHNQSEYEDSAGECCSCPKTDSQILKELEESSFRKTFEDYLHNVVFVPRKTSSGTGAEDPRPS

[2] = molecular target: T1, insulin receptor; assay: Assays of insulin action (several biological assays, classification agonist/antagonist)
Target sequence in this assay (P06213 with tags, fused parts or gaps): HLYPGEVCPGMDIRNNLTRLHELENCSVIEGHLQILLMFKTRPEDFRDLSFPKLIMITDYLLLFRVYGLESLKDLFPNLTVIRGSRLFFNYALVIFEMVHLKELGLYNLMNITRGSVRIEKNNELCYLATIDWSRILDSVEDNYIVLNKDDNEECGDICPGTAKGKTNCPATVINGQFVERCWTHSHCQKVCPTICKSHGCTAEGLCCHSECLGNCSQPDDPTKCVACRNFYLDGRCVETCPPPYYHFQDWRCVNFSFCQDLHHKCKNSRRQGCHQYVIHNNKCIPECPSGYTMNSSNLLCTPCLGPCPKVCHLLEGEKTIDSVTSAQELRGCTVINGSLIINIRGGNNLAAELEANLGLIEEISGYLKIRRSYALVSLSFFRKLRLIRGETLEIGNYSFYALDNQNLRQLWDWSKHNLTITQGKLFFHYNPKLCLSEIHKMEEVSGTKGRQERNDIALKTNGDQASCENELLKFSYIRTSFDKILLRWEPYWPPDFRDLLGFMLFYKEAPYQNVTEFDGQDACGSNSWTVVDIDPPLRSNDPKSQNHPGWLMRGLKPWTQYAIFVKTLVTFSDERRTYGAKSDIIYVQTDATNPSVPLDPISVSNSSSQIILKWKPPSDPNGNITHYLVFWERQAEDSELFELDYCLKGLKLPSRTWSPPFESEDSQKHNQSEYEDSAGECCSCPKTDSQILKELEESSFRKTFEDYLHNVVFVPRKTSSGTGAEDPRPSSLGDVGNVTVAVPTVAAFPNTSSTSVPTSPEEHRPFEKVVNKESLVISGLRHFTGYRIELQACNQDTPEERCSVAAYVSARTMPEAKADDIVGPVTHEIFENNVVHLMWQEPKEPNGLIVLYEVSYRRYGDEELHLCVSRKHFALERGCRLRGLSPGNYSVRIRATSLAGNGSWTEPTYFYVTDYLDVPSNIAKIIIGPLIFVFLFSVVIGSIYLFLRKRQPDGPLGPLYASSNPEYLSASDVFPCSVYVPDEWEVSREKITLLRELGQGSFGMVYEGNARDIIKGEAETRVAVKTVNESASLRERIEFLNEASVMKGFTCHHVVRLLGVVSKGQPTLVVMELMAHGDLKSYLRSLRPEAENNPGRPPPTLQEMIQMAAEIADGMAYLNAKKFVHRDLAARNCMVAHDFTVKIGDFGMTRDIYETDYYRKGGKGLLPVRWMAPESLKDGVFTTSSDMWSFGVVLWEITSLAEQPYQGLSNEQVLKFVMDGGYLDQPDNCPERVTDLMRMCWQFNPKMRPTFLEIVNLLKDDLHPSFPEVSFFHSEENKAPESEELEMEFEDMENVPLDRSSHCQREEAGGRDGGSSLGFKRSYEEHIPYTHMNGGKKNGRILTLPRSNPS

[3] = molecular target: T1, insulin receptor; assay: 125I insulin binding to CHO.T11 cells; parameters: expressed in transfected cells
Method: as §1
Target sequence in this assay (P06213 28-758 limits assumed): as the sequence (P06213 28-758 limits assumed) above

[4] = molecular target: insulin receptor β-subunit associated tyrosine kinase activity (Homo sapiens, UniProt P06213); assay: Protein tyrosine kinase (PTK) assay, 32P incorporation into FYF peptide; format: biochemical; settings: for effect of compound alone on 32P incorporation into FYF peptide: basal, absence of insulin; for Ki: read-out: estimated inhibition constant, PTK assay
insulin receptor β-subunit associated tyrosine kinase activity, sequence (P06213 28-758 limits assumed): as above
Method: Protein tyrosine kinase activity was determined using a modification of the method of N. Konstantopoulos (22).
The reaction was allowed to proceed for 20 minutes at 30° C. before it was terminated by the addition of 12.5 μL of 7.5 M guanidine hydrochloride. An aliquot (10 μL) of the reaction mixture was then spotted onto a Whatman 81 phosphocellulose paper (15 mm×15 mm), washed three times (2 min per wash) in about 50 mL of 30% acetic acid, 0.05% orthophosphoric acid then finally, with one wash in about 200 mL of water. The papers were then rinsed briefly (15 sec) in 95% ethanol, dried, suspended in 2.5 mL of scintillation fluid (Beckman) and counted for radioactivity in a Beckman β-counter.

[5] = molecular target: T1, insulin receptor; assay: 125I insulin binding, insulin receptors from a number of sources; parameters: host or cells: several: placental membranes, CHO.T11 cells, WGA purified receptors; settings: range over receptor sources
Method: as §1
Target sequence in this assay (P06213 28-758 limits assumed): as above

[6] = tested on: 3T3L1 adipocyte cells; assay: Glucose transport (3H-deoxyglucose uptake) in 3T3L1 adipocyte cells; format: cell-based, mouse
Method: Glucose transport was determined using a modification of the method of S. J. Isakoff et at. (23). The assay involved measuring the effect of compounds on the uptake of ^3H-deoxyglucose into 3T3L1 adipocyte cells.
The cell line, 3T3-L1, derived from mouse embryo fibroblasts, was grown in 250 mL tissue culture flasks containing 15 mL medium made up of DMEM (Dulbecco's modified Eagle's medium containing glutamine, 2 mM; sodium bicarbonate, 30 mM; penicillin 71.5 mg/litre; streptomycin, 152.5 mg/litre) supplemented with 10% foetal calf serum (FCS), pH 7.4. Cells were maintained in a humidified incubator at 37° C. in a 5% CO2 environment. The medium was changed every 3 days and the cells were split when they were about 70-80% confluent.
3T3-L1 fibroblast cells from one tissue culture flask were suspended in 50 mL of DMEM media containing 10% FCS and 0.5 mL of this suspension were seeded into each well of two 48-well tissue culture plates. The differentiation of the cells was initiated when the fibroblast cells were fully confluent. Routinely, differentiation was induced on cells that had been growing in tissue culture plates for 4-5 days. […] The cells were subsequently maintained with DMEM medium containing 10% FCS.
One day prior to the glucose transport assay, cell medium was replaced with DMEM containing 10% charcoal-treated foetal calf serum (CTFCS). On the day of the assay, the medium was aspirated and each well was washed with 1 mL of 25 mM Hepes, pH 7.4 containing 0.9% NaCl (NaCl-HEPES). […] Ten microlitres of NaCl-HEPES containing 3 mM 2-deoxy-D-glucose and 0.1 μCi 2-deoxy-D-[1-^3H]glucose were then added. Following a 10 min incubation at 37° C., the medium was aspirated off and the wells rapidly washed three times with 1 mL of ice-cold 50 mM phosphate, pH 7.5 containing 150 mM NaCl (PBS) and 10 mM glucose. Two hundred microlitres of 3% Triton X-100 was then added to each well and left to incubate for a minimum of 10 minutes. One hundred microlitres of the solubilised cells was then added to 2.5 mL of liquid scintillation fluid and counted for radioactivity in a Beckman β-counter.

[7] = molecular target: IGF-1 receptor (Homo sapiens, UniProt P08069); assay: 125I IGF-1 binding to human placental plasma membranes (HPPM); parameters: from tissue; host or cells: human placenta, plasma membranes; settings: HPPM; read-out: Ki, competition for 125I IGF-1 binding
IGF-1 receptor, sequence (P08069 31-736 limits assumed): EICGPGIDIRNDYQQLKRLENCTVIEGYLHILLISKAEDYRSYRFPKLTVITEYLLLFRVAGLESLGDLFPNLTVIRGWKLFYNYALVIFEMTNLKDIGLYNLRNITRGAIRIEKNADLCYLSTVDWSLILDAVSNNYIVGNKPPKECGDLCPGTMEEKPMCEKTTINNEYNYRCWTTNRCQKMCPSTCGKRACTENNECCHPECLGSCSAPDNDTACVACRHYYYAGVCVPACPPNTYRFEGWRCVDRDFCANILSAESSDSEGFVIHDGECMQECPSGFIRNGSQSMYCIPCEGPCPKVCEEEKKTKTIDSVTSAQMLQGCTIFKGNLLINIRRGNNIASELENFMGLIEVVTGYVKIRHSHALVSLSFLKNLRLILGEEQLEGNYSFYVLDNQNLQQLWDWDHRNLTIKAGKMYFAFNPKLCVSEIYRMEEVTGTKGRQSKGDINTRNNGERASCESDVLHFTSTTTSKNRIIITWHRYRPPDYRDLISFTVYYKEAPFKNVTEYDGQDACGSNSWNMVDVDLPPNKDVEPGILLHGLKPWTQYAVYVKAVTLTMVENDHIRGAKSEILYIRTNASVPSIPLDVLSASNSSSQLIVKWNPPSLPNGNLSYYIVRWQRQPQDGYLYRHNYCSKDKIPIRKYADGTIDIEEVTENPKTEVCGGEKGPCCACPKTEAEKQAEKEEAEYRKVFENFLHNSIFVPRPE

[8] = molecular target: T1, insulin receptor; assay: 125I insulin binding to human placental plasma membranes (HPPM); parameters: Human Placental Plasma Membranes—50 mM Hepes, pH 7.8 @ 4 C containing 100 U/mL Bacitracin; from tissue; host or cells: human placenta, plasma membranes
Method: as §1
Target sequence in this assay (P06213 28-758 limits assumed): as the sequence (P06213 28-758 limits assumed) above

[9] = read-out: estimated IC50, 32P incorporation into FYF peptide
[10] = Mus musculus, 3T3-L1; read-out: estimated IC50, glucose transport
[11] = human placental plasma membranes, 16 h at 4° C.
[12] = 3T3L1 cells, 2 nM insulin; read-out: estimated inhibition constant (Ki), glucose transport assay

Row | Compound | Ki [1] [µM] | classification of insulin action [2] | Ki [8, 11] [µM] | Ki [4] [µM] | Ki [6, 12] [µM] | effect of compound alone on 32P incorporation into FYF peptide [4] | effect of compound alone on glucose transport ([6]; basal, no insulin) | other results
1 | O=C(O)c1cc2ccccc2c(Cc2c(O)c(C(=O)O)cc3ccccc23)c1O [IM 025, 4,4′-Methylenebis[3-hydroxy-2-naphthalenecarboxylic acid]] | 108 ± 32 | antagonists of insulin action | – | – | – | – | – | Ki [3]: 137 to 337 µM; IC50 [4, 9]: 150 µM; Ki [5]: 100 to 400 µM; IC50 [6, 10]: 170 µM
2 | O=S(=O)(NS(=O)(=O)C(F)(F)F)c1cc(Cl)cc(Cl)c1OS(=O)(=O)c1cc(Cl)cc(Cl)c1O [IM 103, 2,4-dichloro-6-(N-(trifluoromethanesulfonyl))sulfamoylphenyl 3,5-dichloro-2-hydroxybenzenesulfonate] | 83 | agonists of insulin action | 137 ± 45 | – | – | – | – | Ki [3]: 132 ± 29 µM; Ki [7]: 59 µM; EC50 ([6]; Mus musculus, 3T3-L1; compound alone; read-out: apparent EC50, stimulation of glucose transport): 45 ± 7 µM; efficacy compared with insulin, glucose transport ([6]; compound alone, relative to maximal dose of insulin (100 nM)): about 15%; concentration at apex of bi-phasic dose response curve ([6]; glucose transport): 110 µM; effect on insulin stimulated glucose transport ([6]; in presence of insulin (2 nM)): abolishes the insulin stimulation of glucose transport in a dose dependent manner
3 | CCCc1c(COc2ccc3c(=O)cc(C(=O)O)oc3c2CCC)ccc(C(C)=O)c1O [IM 127, 7-[(4-acetyl-3-hydroxy-2-propylphenyl)methoxy]-4-oxo-8-propyl-4H-1-benzopyran-2-carboxylic acid] | 295 | antagonists of insulin action | 140 to 320 | – | 60 | – | – | –
4 | CCCc1c(OCc2ccc3ccccc3n2)ccc2c1OC(C(=O)O)CC2 (stereo not shown) [IM 143, 8-propyl-7-(quinol-2′-ylmethoxy)-3,4-dihydro-2H-1-benzopyran-2-carboxylic acid] | – | antagonists of insulin action | – | – | 40 | – | does not stimulate glucose transport activity | Ki ([8]; human placental plasma membranes): ~2000 µM
5 | CCCN(CCC)c1c([N+](=O)[O-])cc(S(=O)(=O)NS(=O)(=O)C(F)(F)F)cc1[N+](=O)[O-] [IM 145, N-(trifluoromethanesulfonyl)-3,5-dinitro-4-(N′,N′-dipropylamino)benzenesulfonamide] | – | antagonists of insulin action | – | – | – | does not stimulate PTK | does not stimulate PTK or glucose transport activity | IC50 [4]: 90 µM; Ki [8]: ~1000 µM; IC50 ([6]; Mus musculus, 3T3-L1, read-out: estimated IC50, glucose transport): 60 µM

Continued, in another order:

Row | Ki [1] [µM] | classification of insulin action [2] | Ki [8, 11] [µM] | Ki [4] [µM] | Compound | Ki [6, 12] [µM] | effect of compound alone on 32P incorporation into FYF peptide [4] | effect of compound alone on glucose transport ([6]; basal, no insulin) | other results
6 | – | antagonists of insulin action | – | – | CCCc1c(OCCCOc2cc(O)c(C(C)=O)cc2CC)ccc2c1OC(C(=O)O)CC2 (stereo not shown) [IM 071, 7-[3-(4-acetyl-2-ethyl-5-hydroxyphenoxy)propoxy]-3,4-dihydro-8-propyl-2H-1-benzopyran-2-carboxylic acid] | – | – | – | –
7 | – | antagonists of insulin action | – | 360 | CCCc1c(OCCCOc2cc(O)c(-c3cc[nH]n3)cc2CC)ccc2c1OC(C(=O)O)CC2 (stereo not shown) [IM 132, 3,4-dihydro-8-propyl-7-[[3-[2-ethyl-5-hydroxy-4-(1H-pyrazol-3-yl)phenoxy]propyl]oxy]-2H-1-benzopyran-2-carboxylic acid] | 64 | does not increase ^32P incorporation into FYF peptide | does not increase ^32P incorporation into FYF peptide or activate glucose transport | Ki [5]: 200 to 450 µM; effect on insulin stimulated glucose transport ([6]; in presence of insulin (2 nM)): significant synergism with insulin
8 | – | antagonists of insulin action | 900 | 300 to 400 | CCCc1c(OCCCOc2cc(O)c(OCC)cc2CC)ccc2c1OC(C(=O)O)CC2 (stereo not shown) [IM 134, 3,4-dihydro-8-propyl-7-[[3-[2-ethyl-5-hydroxy-4-ethoxyphenoxy]propyl]oxy]-2H-1-benzopyran-2-carboxylic acid] | 60 to 110 | does not increase ^32P incorporation into FYF peptide | does not increase ^32P incorporation into FYF peptide or glucose transport | –
9 | – | antagonists of insulin action | 900 | 130 | CCCc1c(OCc2ccc3ccccc3c2)ccc2c1OC(C(=O)O)CC2 (stereo not shown) [IM 144, 7-(naphth-2′-ylmethoxy)-8-propyl-3,4-dihydro-2H-1-benzopyran-2-carboxylic acid] | 125 | does not increase ^32P incorporation into FYF peptide | does not increase ^32P incorporation into FYF peptide or activate glucose transport | –
10 | – | antagonists of insulin action | 370 | – | CCCc1c(OCCCOc2cc(O)c(-c3ccc(F)cc3)cc2CC)ccc2c1OC(C(=O)O)CC2 (stereo not shown) [IM 171, 8-propyl-7-[3-[4-(4-fluorophenyl)-2-ethyl-5-hydroxyphenoxy]propoxy]-3,4-dihydro-2H-1-benzopyran-2-carboxylic acid] | – | does not increase ^32P incorporation into FYF peptide | does not increase ^32P incorporation into FYF peptide or activate glucose transport | IC50 [4, 9]: 250 µM; IC50 [6, 10]: 80 µM
